Entries after “also recorded” stand apart in the source; their conditions may differ. Marks after values point to notes of the source that are not given here.
How the values were obtained:
[1] = tested on: (NZB×NZW)F1 mice with established SLE; assay: ELISA for dsDNA-specific antibodies in sera of treated SLE-afflicted mice; format: in vivo; conditions: bled after termination of treatment, s.c. once a week for 10 weeks
Protocol: (§1) Treatment of (NZB×NZW)F1 mice with edratide. Female mice aged 6-7 months, with established SLE, were divided into groups (8-10 mice per group) and injected subcutaneously (s.c.) with edratide (25-50 μg) or vehicle only (Captisol®) once a week for 10 weeks. Proteinuria and anti-double stranded DNA (dsDNA) autoantibodies were monitored throughout this period.
Enzyme-linked immunosorbent assay (ELISA) for the detection of dsDNA-specific antibodies. Anti-dsDNA-specific antibodies were determined using lambda phage dsDNA as previously described (5).
(§2) Treatment with edratide ameliorates disease manifestations in (NZB×NZW)F1 mice with established SLE. SLE-afflicted female mice, aged 6-7 months, were treated with 10 weekly s.c. injections of edratide or vehicle (Captisol®) and followed for disease manifestations. One week after the treatment ended the mice were killed and their kidneys were evaluated for immune-complex deposits. The results of a representative experiment are presented in Table 1 below, which summarizes some clinical manifestations of the experimental mice.

[2] = tested on: (NZB×NZW)F1 mice with established SLE; assay: Proteinuria, semi-quantitative Albustix test; format: in vivo; conditions: at the end of the experiment; s.c. once a week for 10 weeks
Protocol: as §1
Proteinuria. Proteinuria was measured by a standard semi-quantitative test, using an Albustix kit (Bayer Diagnostics, Newbury, UK).
as §2

[3] = tested on: (NZB×NZW)F1 mice with established SLE; assay: Immunohistology of kidney sections for immune-complex deposits; format: in vivo; conditions: graded 0 none, 1 low, 2 moderate, 3 high intensity, s.c. once a week for 10 weeks
Protocol: as §1
Immunohistology. For detection of immune-complex deposits, frozen kidney sections (6 μm) were air-dried and fixed in acetone. Sections were incubated with FITC-conjugated goat anti-mouse IgG (gamma-chain specific; Jackson ImmunoResearch Laboratories, Avondale, Pa.) for 30 minutes and were extensively washed with PBS. The intensity of immune-complex deposits was graded on a […]: 0, no deposits; 1, low-intensity deposits; 2, moderate-intensity deposits; 3, high-intensity deposits.
as §2

[4] = tested on: splenocytes of SLE-afflicted (NZB×NZW)F1 mice; assay: Affymetrix microarray of RNA from splenocytes of treated mice; format: in vivo
Source text: Preparation of RNA. Using the RNA/DNA/protein isolation reagent (TRI Reagent®; Molecular Research Center, Cincinnati, Ohio), total RNA was isolated from spleen cells that were pooled (n=2-4 mice) from each experimental group of (NZB×NZW)F1 mice.
Microarray and statistics. RNA samples were hybridized to the mouse genome AffymetrixGeneChip® 430A2 (Affymetrix, Santa Clara, Calif.) array. R packages were used from the Bioconductor project (23). Initially, probe signal summarization, normalization, and background subtraction were performed using Robust Multi-array Averaging (RMA) (24) in affy package with default parameters. Then, the statistical test for differentially expressed genes was performed using Linear Models for Microarray (LIMMA) package (25), which allows for a better variance estimation by calculating the moderated t-statistic using empirical Bayesian techniques. Finally, genes were selected that were statistically significant with P value <0.05 in each biological comparison of interest separately.
Microarray analysis of immunocytes from SLE-afflicted mice. In an attempt to identify gene expression profiles characteristic of SLE and to gain an insight into the modified profile induced by edratide, DNA microarray technology was used on RNA preparations from splenocytes of SLE-afflicted (NZB×NZW)F1 mice treated with edratide or with vehicle only (as described above and in Table 1). […] Three independent in vivo experiments were successfully performed. The RNA obtained in each experiment was hybridized independently on the Affymetrix chips.

[5] = tested on: spleen cells of SLE-afflicted (NZB×NZW)F1 mice; assay: Real-time RT-PCR of spleen cell mRNA from treated mice; format: in vivo; conditions: normalized to β-actin
Protocol: Real-time RT-PCR. Messenger RNA (mRNA) was analyzed by quantitative real-time RT-PCR using LightCycler (Roche Diagnostics, Mannheim, Germany). Total RNA was isolated from spleen cells pooled from each treatment group (n=2−4) of (NZB×NZW)F1 mice. To prepare cDNA, RNA was reverse-transcribed using Moloney murine leukemia virus (M-MLV) reverse transcriptase (Promega, Madison, Wis.). The resulting cDNA was subjected to real-time RT-PCR according to the manufacturer's instructions. Briefly, the reaction volume (20 μl) contained 3 mM MgCl2, LightCycler hot start DNA SYBR Green I mix (Roche), specific primer pairs, and 5 μl of cDNA. Conditions for PCR were as follows: 10 minutes at 95° C. followed by 35-50 cycles of 15 seconds at 95° C., 15 seconds at 60° C., and 15 seconds at 72° C. Primer sequences (forward and reverse, respectively) were used as follows:
β-actin levels were used for normalization in calculating the expression levels of all other genes.
Real-time RT-PCR analysis. […] These genes were chosen because they reportedly meet at least one of the following three criteria: involvement in SLE, functioning in lymphocytes, and expression in the kidney.

OX40L = assay: Immunostaining of kidney sections for OX40L expression; format: in vivo; conditions: 6 edratide-treated mice; intense staining in all 5 vehicle-treated mice
Protocol: Immunohistochemistry of kidney sections. Frozen cryostat sections (6 μm) were air-dried and fixed in acetone. For detection of OX40 ligand (OX40L) expression, sections were incubated for 16 hours at room temperature with anti-OX40L monoclonal antibody (M−20; Santa Cruz Biotechnology, Santa Cruz, Calif.). FITC-conjugated mouse anti-goat IgG (Jackson ImmunoResearch Laboratories, West Grove, Pa.) was then added.
Immunostaining of kidneys of (NZB×NZW)F1 mice for OX40L expression. […] Immunohistological analysis of kidney sections from 5 SLE-afflicted vehicle-treated or 6 edratide-treated mice and 3 disease-free young mice was performed.

SLE-afflicted mice = conditions: cited from earlier work
[6] = SLE-afflicted mice, reference 5

With “GYYWSWIRQPPGKGEEWIG (hCDR (Edratide) synthetic peptide) [synthetic peptide based on the CDR1 of the human monoclonal anti-DNA antibody bearing the common idiotype 16/6Id]” as the sequence, how does the “Anti dsDNA antibodies (OD), Dilution 1:10” value ([1]; serum dilution 1:10, mean ± spread) read?
The value was 1.46 ± 0.32 OD.

What about the “Anti dsDNA antibodies (OD), Dilution 1:250” value ([1]; serum dilution 1:250) of the same sequence?
The value was 0.48 ± 0.21 OD.

And the Proteinuria [2]?
The Proteinuria was 1.92 ± 0.96 g/L.

What about the “Intensity of ICD (immune-complex deposits)” value [3] of the same sequence?
The value was 1.33 ± 0.36.

And the “Fold difference in expression, edratide-treated (hCDR1) vs SLE mice: 1190003K14Rik” value ([4]; gene 1190003K14Rik, splenocytes)?
The value was 2.4 fold.

What about the “Fold difference in expression, edratide-treated vs SLE mice: 2700022B06Rik” value ([4]; gene 2700022B06Rik, not statistically significant) of the same sequence?
The value was −1.4^† fold.

What about the “Fold difference in expression, edratide-treated vs SLE mice: 5830484A20Rik” value ([4]; gene 5830484A20Rik, splenocytes, negative = reduction in signal) of the same sequence?
Its value is −3.0 fold.

And the “Fold difference in expression, edratide-treated vs SLE mice: A130040M12Rik” value ([4]; gene A130040M12Rik, not statistically significant)?
The value was 1.3^† fold.

And the “Fold difference in expression, edratide-treated vs SLE mice: Ass1” value ([4]; gene Ass1, not statistically significant)?
The value was −1.2^† fold.

What about the “Fold difference in expression, edratide-treated (hCDR1) vs SLE mice: Camp” value ([4]; gene Camp, splenocytes) of the same sequence?
The value was 2.8 fold.

And the “Fold difference in expression, edratide-treated vs SLE mice: Cd8b1” value ([4]; gene Cd8b1, not statistically significant)?
Its value is 2.0^† fold.

And the “Fold difference in expression, edratide-treated (hCDR1) vs SLE mice: Ctsg” value ([4]; gene Ctsg, not statistically significant)?
The value was 1.2^† fold.

And the “Fold difference in expression, edratide-treated vs SLE mice: Cyp11a1” value ([4]; gene Cyp11a1, not statistically significant)?
The value was −1.8^† fold.

What about the “Fold difference in expression, edratide-treated vs SLE mice: Dhx9” value ([4]; gene Dhx9, not statistically significant) of the same sequence?
The value was −1.0^† fold.

And the “Fold difference in expression, edratide-treated vs SLE mice: Fzd6” value ([4]; gene Fzd6, splenocytes, negative = reduction in signal)?
Its value is −2.9 fold.

What about the “Fold difference in expression, edratide-treated vs SLE mice: Gpr132” value ([4]; gene Gpr132, not statistically significant) of the same sequence?
The value was −1.1^† fold.

And the “Fold difference in expression, edratide-treated vs SLE mice: Hdgfrp3” value ([4]; gene Hdgfrp3, not statistically significant)?
The value was −1.7^† fold.

What about the “Fold difference in expression, edratide-treated vs SLE mice: IL5Rα” value ([4]; gene IL5Rα, splenocytes, negative = reduction in signal) of the same sequence?
Its value is −2.0 fold.

And the “Fold difference in expression, edratide-treated vs SLE mice: LOC 545340” value ([4]; gene LOC 545340, splenocytes, negative = reduction in signal)?
Its value is −2.7 fold.

What about the “Fold difference in expression, edratide-treated (hCDR1) vs SLE mice: Lcn” value ([4]; gene Lcn (Lipocalin 2), splenocytes) of the same sequence?
Its value is 2.9 fold.

What about the “Fold difference in expression, edratide-treated vs SLE mice: Lmo7” value ([4]; gene Lmo7, splenocytes, negative = reduction in signal) of the same sequence?
The value was −2.8 fold.

And the “Fold difference in expression, edratide-treated (hCDR1) vs SLE mice: Ltf” value ([4]; gene Ltf, splenocytes)?
The value was 3.2 fold.

And the “Fold difference in expression, edratide-treated (hCDR1) vs SLE mice: Mpo” value ([4]; gene Mpo, not statistically significant)?
Its value is 1.5^† fold.

What about the “Fold difference in expression, edratide-treated (hCDR1) vs SLE mice: Ngp” value ([4]; gene Ngp, splenocytes) of the same sequence?
The value was 2.5 fold.

And the “Fold difference in expression, edratide-treated vs SLE mice: Nid1” value ([4]; gene Nid1, splenocytes, negative = reduction in signal)?
Its value is −2.4 fold.

What about the “Fold difference in expression, edratide-treated vs SLE mice: Pigr” value ([4]; gene Pigr, not statistically significant) of the same sequence?
Its value is −1.4^† fold.

What about the “Fold difference in expression, edratide-treated (hCDR1) vs SLE mice: Prtn3” value ([4]; gene Prtn3, not statistically significant) of the same sequence?
The value was 1.3^† fold.

And the “Fold difference in expression, edratide-treated vs SLE mice: Pstpip2 (second entry)” value ([4]; gene Pstpip2, entry with SLE fold 2.0, not statistically significant)?
Its value is −1.5^† fold.

What about the “Fold difference in expression, edratide-treated vs SLE mice: Pstpip2 (first entry)” value ([4]; gene Pstpip2, entry with SLE fold 2.2, not statistically significant) of the same sequence?
Its value is −1.9^† fold.

What about the “Fold difference in expression, edratide-treated vs SLE mice: Rnf184” value ([4]; gene Rnf184, not statistically significant) of the same sequence?
Its value is 1.2^† fold.

What about the “Fold difference in expression, edratide-treated (hCDR1) vs SLE mice: S100a8” value ([4]; gene S100a8, splenocytes) of the same sequence?
Its value is 2.4 fold.

And the “Fold difference in expression, edratide-treated (hCDR1) vs SLE mice: S100a9” value ([4]; gene S100a9, splenocytes)?
The value was 2.4 fold.

What about the “Fold difference in expression, edratide-treated (hCDR1) vs SLE mice: Slfn” value ([4]; gene Slfn (Schlafen 4), splenocytes) of the same sequence?
The value was 2.7 fold.

And the “Fold difference in expression, edratide-treated (hCDR1) vs SLE mice: Tfpi” value ([4]; gene Tfpi, splenocytes)?
Its value is 2.2 fold.

What about the “Fold difference in expression, edratide-treated (hCDR1) vs SLE mice: Thbs1” value ([4]; gene Thbs1, not statistically significant) of the same sequence?
The value was 1.5^† fold.

What about the “Fold difference in expression, edratide-treated vs SLE mice: Tnfsf4” value ([4]; gene Tnfsf4, splenocytes, negative = reduction in signal) of the same sequence?
Its value is −2.5 fold.

And the “Fold difference in expression, edratide-treated vs SLE mice: Zbtb20” value ([4]; gene Zbtb20, splenocytes, negative = reduction in signal)?
The value was −2.2 fold.

What about the “Fold difference in expression, edratide-treated vs SLE mice: Unknown gene” value ([4]; gene title and symbol Unknown, SLE fold 1.9) of the same sequence?
Its value is −1.7 fold.

And the “Number of genes down-regulated 2-fold or more in diseased mice that were up-regulated after treatment” value ([4]; of the 12 identified genes)?
The value was 9 (75%) genes.

What about the “Number of genes up-regulated 2-fold or more in SLE-afflicted mice that were significantly down-regulated after treatment” value ([4]; of the 15 genes with an identified product) of the same sequence?
The value was 9 (60%) genes.

What about the “Number of disease-altered genes affected by edratide and restored to levels similar to disease-free controls” value ([4]; of the 348 genes with altered expression in vehicle-treated diseased mice (22%)) of the same sequence?
The value was 76 genes.

What about the “Real-time RT-PCR expression of Tfpi and S100a8 transcripts” value ([5]; genes down-regulated by the disease, FIG. 2B) of the same sequence?
Its value is “up-regulated after edratide treatment to levels similar to those in the young controls”.

What about the “Real-time RT-PCR expression of Tnfsf4, Il-5rα, Zbtb20 and Nid1 transcripts” value ([5]; genes up-regulated by the disease, FIG. 2A) of the same sequence?
Its value is “reduced the expression of these genes to levels similar to those seen in the young mice”.

What about the “OX40L expression in kidney sections (immunostaining)” value (OX40L) of the same sequence?
Its value is “very weak (in 2 mice and 1 mouse, respectively) or undetectable (in 4 and 2 mice, respectively); also recorded: down-regulated”.

What about the Kidney disease (SLE-afflicted mice; (NZB×NZW)F1 mice, WO 02/067848) of the same sequence?
The Kidney disease was “reduced kidney disease”.

And the “Immunosuppressive cytokine TGFβ” value (SLE-afflicted mice; [6])?
Its value is “up-regulated”.

And the “Secretion and expression of pathogenic cytokines (IFNγ, IL-1β, TNFα, IL-10)” value (SLE-afflicted mice; [6])?
The value was “reduced secretion and expression”.

From patent US20100322928A1, “METHODS OF DIAGNOSING, MONITORING TREATMENT AND TREATING SYSTEMIC LUPUS ERYTHEMATOSUS (SLE)” (Yeda Research and Development Co., Ltd., priority 2007, published 2010)
